PMC9995496, “A screen for MeCP2-TBL1 interaction inhibitors using a luminescence-based assay” (Scientific Reports, 2023)

Target: T1, MeCP2-TBL1 interaction (MeCP2-SmBiT / TBL1-LgBiT) (Mus musculus, UniProt Q9QXE7)
T1 construct: expressed in transfected cells; crude lysate used as a cell-free assay
T1 sequence (Q9QXE7 166-527): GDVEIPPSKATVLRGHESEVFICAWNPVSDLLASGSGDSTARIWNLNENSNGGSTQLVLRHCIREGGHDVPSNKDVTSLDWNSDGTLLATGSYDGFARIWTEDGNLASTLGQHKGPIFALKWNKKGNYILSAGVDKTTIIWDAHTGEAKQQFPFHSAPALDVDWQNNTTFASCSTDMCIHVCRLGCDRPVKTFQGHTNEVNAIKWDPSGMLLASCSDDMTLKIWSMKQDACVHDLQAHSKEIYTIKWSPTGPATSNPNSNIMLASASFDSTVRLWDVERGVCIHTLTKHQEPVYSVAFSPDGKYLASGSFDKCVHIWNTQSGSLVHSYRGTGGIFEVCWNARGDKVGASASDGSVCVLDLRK
Test: MeCP2-TBL1 NanoLuc luciferase complementation assay (cell-free, extracts of transfected HEK293 cells);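 further: each compound tested at 20 µM final concentration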
Assay type: binding, human
In short: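 Cell-free split NanoLuc: lysate of HEK293 cells co-expressing the MeCP2 C-terminal half-SmBiT and TBL1 WD domain-LgBiT, mixed 1:1 with furimazine. After 30 min at room temperature, luminescence was plate-median normalized.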

[1] = primary screen of the Asinex library, sheet "Sargen output Asinex library", one well per compound
[2] = primary screen of the Asinex library, sheet "Sargen output Asinex library", one well per compound, Batch Ref. 1
[3] = primary screen of Asinex library, single well per compound

| Compound | Inhibition percent [1] [%] | Inhibition percent [3] | also measured |
| --- | --- | --- | --- |
| O=C1CCCN1CCOc1ccccc1C(=O)N1CCCC(Cc2ccc3ncccc3c2)CC1 (centres unmarked) [BDH_32358602] | -0.32 |  |  |
| COc1ccc(C2(C(=O)N3CCCC(Cc4cccc5ccncc45)CC3)CCOCC2)cc1 (centres unmarked) [BDH_32359024] | 2.06 |  |  |
| CN(C)CC(=O)N1CCCC(C)(C(=O)N2CCC(c3cccc(Cc4ccccc4)n3)CC2)C1 (centres unmarked) [BDH_32359557] |  |  | Inhibition percent [2]: 2.74% |
| Fc1cccc(COc2ccccc2CN2CCOCC(Cc3cn4ccnc4cn3)C2)c1 (centres unmarked) [BDH_32359710] | -1.22 |  |  |
| COc1ccccc1[C@@H]1CN(Cc2cccc(Oc3ncccn3)c2)C[C@]12CCCCC(=O)N2 [BDH_32359781] | -0.97 |  |  |
| Cc1cc(Oc2ccccc2)nc(C2CCN(C(=O)C3(C)CCN(c4ncccn4)CC3)CC2)n1 [BDH_32359876] | 3.25 |  |  |
| COc1ccc(C(=O)N2CCCC(Cc3cccc4ncccc34)C2)cc1NCc1ccncc1 (centres unmarked) [BDH_32359947] |  | -3.52 |  |
| COc1ccc(C(=O)N2CCCC(Cc3ccc4ncccc4c3)C2)cc1NCc1ccncc1 (centres unmarked) [BDH_32359951] | -4.50 |  |  |
| Cc1ccc(Oc2cccc(C3CN(C(=O)c4cccc(Cn5ccnc5)c4)CCO3)n2)cc1 (centres unmarked) [BDH_32360064] |  |  | Inhibition percent [2]: 8.15% |
| O=C1CCCN1CCOc1cccc(C(=O)N2CCCC(Cc3cccc4cnccc34)CC2)c1 (centres unmarked) [BDH_32360253] | 1.74 |  |  |
| Cc1cccc(Oc2cncc(C3CCCN(C(=O)c4cccc(Cn5ccnc5C)c4)C3)n2)c1 (centres unmarked) [BDH_32360361] | 0.07 |  |  |
| Cc1nonc1COc1ccccc1C(=O)N1CCCC(Cc2nccn3cccc23)CC1 (centres unmarked) [BDH_32360822] | 2.59 |  |  |
| O=C(c1ccccc1CN1CCOCC1)N1C2CCC1CC(Cc1cncc3ccccc13)C2 (centres unmarked) [BDH_32360830] | -0.42 |  |  |
| CC1(C(=O)N2CCCC(Cc3cccc4ccncc34)CC2)CCN(C(=O)c2ccccc2)CC1 (centres unmarked) [BDH_32360998] |  |  | Inhibition percent [2]: -2.76% |
| Cn1cc(C(=O)Nc2cccc(C(=O)N3CCCC(Cc4ccnc5ccccc45)CC3)c2)cn1 (centres unmarked) [BDH_32361062] | -0.32 |  |  |
| Cn1cc(C(=O)Nc2cccc(C(=O)N3CCCC(Cc4cnc5ccccc5c4)CC3)c2)cn1 (centres unmarked) [BDH_32361063] |  | -0.14 |  |
| Cc1cc(Oc2ccc(F)cc2)nc(C2CCCN(C(=O)c3cccc(Cn4ccnc4)c3)C2)n1 (centres unmarked) [BDH_32361331] | 1.28 |  |  |
| Cc1cccc(Cc2cccc(C3CCCN(C(=O)c4ccnc(N5CCOCC5)c4)C3)n2)c1 (centres unmarked) [BDH_32361750] | -1.55 |  |  |
| CC1(C(=O)N2CCOCC(Cc3ccc4cnccc4c3)C2)CCN(CCc2ccccc2)CC1 (centres unmarked) [BDH_32362344] | -0.71 |  |  |
| CC1(C(=O)N2CCOCC(Cc3ccc4ccncc4c3)C2)CCN(CCc2ccccc2)CC1 (centres unmarked) [BDH_32362347] | -4.04 |  |  |
| C[C@]12C[C@@H](c3ccc(F)cc3)N(C(=O)c3cccc(Oc4ncccn4)c3)[C@H]1CCCCC(=O)N2 [BDH_32362535] |  | -1.66 |  |
| COc1ccc(Oc2cncc(C3CCN(C(=O)C4(c5ccccc5)CCOCC4)CC3)n2)cc1 [BDH_32362557] |  |  | Inhibition percent [2]: 3.43% |

| Compound | Inhibition percent [1] [%] | Inhibition percent [3] | also measured |
| --- | --- | --- | --- |
| Cc1cccc(Cc2cccc(C3CCCN(C(=O)c4ccnc(-c5cnn(C)c5)c4)C3)n2)c1 (centres unmarked) [BDH_32362596] | 2.04 |  |  |
| Cc1ccc(C(=O)N2CCC3(CC2)COC(Cc2cccc(F)c2)C3)cc1NCc1ccccn1 (centres unmarked) [BDH_32362747] |  | 0.11 |  |
| Cc1cc(C(=O)N2CCC(Cc3cccc4cccnc34)CC2)nc(C2(C)CCN(C)CC2)n1 [BDH_32363559] |  | -3.40 |  |
| O=C(c1ccccc1Cn1ccnc1)N1CCCC(c2cccc(Cc3ccc(F)cc3)n2)C1 (centres unmarked) [BDH_32363926] |  |  | Inhibition percent [2]: 1.46% |
| O=C(c1cccc(Oc2ncccn2)c1)N1CC[C@H]2[C@H]1CCCCC(=O)N2Cc1ccccc1 [BDH_32363931] | -2.83 |  |  |
| O=C(c1cccc(Nc2ncccn2)c1)N1CCC2(CC1)COC(Cc1cccc(F)c1)C2 (centres unmarked) [BDH_32363979] |  | 9.41 |  |
| Cc1c(C(=O)N2CCC(O)(CN3CCN(c4ccccc4)CC3)C2)cccc1N1CCOCC1 (centres unmarked) [BDH_32364008] | -0.54 |  |  |
| Cc1nccn1Cc1ccccc1C(=O)N1CCCC(c2cncc(Oc3ccccc3)n2)C1 (centres unmarked) [BDH_32364323] | -2.15 |  |  |
| Cc1nc(N(C)C)cc(C2(C)CCCN(C(=O)c3ccc(Cl)c(N4CCOCC4)c3)C2)n1 (centres unmarked) [BDH_32364491] |  |  | Inhibition percent [2]: -1.79% |
| Cc1cc(Oc2ccc(F)cc2)nc(C2CCCCN2C(=O)c2cccc(-n3cnnc3)c2)n1 (centres unmarked) [BDH_32364593] |  | -1.56 |  |
| COc1ccccc1Oc1cccc(C2CCN(C(=O)c3ccnc(N4CCOCC4)c3)CC2)n1 [BDH_32364726] |  |  | Inhibition percent [2]: 2.70% |
| Cc1cc(Oc2ccc(F)cc2)nc(C2CCCCN2C(=O)c2ccnc(-c3cncnc3)c2)n1 (centres unmarked) [BDH_32364851] | -4.83 |  |  |
| Cc1cc(Oc2ccc(F)cc2)nc(C2CCCCN2C(=O)c2cccc(-c3cncnc3)n2)n1 (centres unmarked) [BDH_32364853] |  | -0.96 |  |
| CC(=O)N[C@@]12CN(C)CC[C@@H]1[C@@H](c1ccccc1)N(C(=O)c1cccc(-n3nc(C)cc3C)c1)C2 [BDH_32365020] |  | -3.43 |  |
| Cn1cc(-c2cccc(C(=O)N3CCC(c4cccc(Cc5ccc(F)cc5)n4)CC3)n2)cn1 [BDH_32365359] | 2.72 |  |  |
| Cn1cc(-c2cccc(C(=O)N3CCCC(c4cccc(Cc5ccc(F)cc5)n4)C3)n2)cn1 (centres unmarked) [BDH_32365360] | 7.56 |  |  |
| Cn1cc(-c2ccc(C(=O)N3CCCC(c4cccc(Cc5ccc(F)cc5)n4)C3)cn2)cn1 (centres unmarked) [BDH_32365364] |  |  | Inhibition percent [2]: 4.12% |
| CN1CCN(c2cc(C(=O)N3CCC(O)(CN4CCN(c5ccccc5)CC4)C3)ccn2)CC1 (centres unmarked) [BDH_32365527] |  | -1.97 |  |
| COc1cccc(Oc2cc(C)nc(C3CCCCN3C(=O)c3cccc(-n4cnnc4)c3)n2)c1 (centres unmarked) [BDH_32365761] | -5.24 |  |  |
| COc1cccc(Nc2ncccc2C(=O)N2CCOCC(Cc3nccn4cccc34)C2)c1 (centres unmarked) [BDH_32366009] |  |  | Inhibition percent [2]: -5.94% |
| Cc1cc(Oc2ccccc2F)nc(C2CCCCN2C(=O)c2ccnc(-c3cncnc3)c2)n1 (centres unmarked) [BDH_32366371] |  | 0.18 |  |
| Cc1cc(CC2CCN(C(=O)C3(C)CCN(C(=O)Cc4cccc(F)c4)CC3)CC2)ccn1 [BDH_32366782] | 4.29 |  |  |

| Compound | Inhibition percent [1] [%] | Inhibition percent [3] | also measured |
| --- | --- | --- | --- |
| Cn1cc(-c2cc(C(=O)N3CCC(c4cncc(-c5cccc(Cl)c5)n4)CC3)ccn2)cn1 [BDH_32366963] |  |  | Inhibition percent [2]: 1.59% |
| O=C1CCCN1CCOc1cccc(C(=O)N2C3CCC2CC(Cc2cnc4[nH]ccc4c2)C3)c1 (centres unmarked) [BDH_32367285] |  |  | Inhibition percent [2]: -0.20% |
| Cc1cccc(Cc2cccc(C3CCCN(C(=O)c4ccnc(-c5cncnc5)c4)C3)n2)c1 (centres unmarked) [BDH_32367369] |  | -1.96 |  |
| CC(=O)N[C@@]12CN(C)CC[C@@H]1[C@@H](c1ccccc1)N(C(=O)c1cccc(Oc3ncccn3)c1)C2 [BDH_32367667] | -3.64 |  |  |
| CC(C)(NC(=O)Cc1cccc(F)c1)C(=O)N1CCCC2(CC1)CN(c1ccccc1)C(=O)O2 (centres unmarked) [BDH_32367867] |  | 2.91 |  |
| Cc1ccc(C2(C(=O)N3CCC(CC(=O)Nc4ccc5nccnc5c4)CC3)CCOCC2)cc1 [BDH_32368328] |  |  | Inhibition percent [2]: -1.52% |
| Cc1cc(Oc2ccccc2F)nc(C2CCN(C(=O)c3cccc(-c4cncnc4)n3)CC2)n1 [BDH_32368986] |  |  | Inhibition percent [2]: 1.94% |
| Cc1cc(Oc2ccc(F)cc2)nc(C2CCN(C(=O)c3cncc(-c4cncnc4)c3)CC2)n1 [BDH_32369058] | -2.06 |  |  |
| CC(=O)N1CCC(Cc2ccc(F)cc2)(C(=O)N2CCCC(Cc3cccc(C)n3)C2)CC1 (centres unmarked) [BDH_32369388] |  | -2.67 |  |
| O=C(c1cccc(Oc2ncccn2)c1)N1CCCC2(CC1)CN(c1cccc(F)c1)C(=O)O2 (centres unmarked) [BDH_32369515] |  | -4.84 |  |
| COc1ccccc1Oc1cccc(C2CCN(C(=O)c3ccc(-c4cncnc4)nc3)CC2)n1 [BDH_32370065] |  | -2.43 |  |
| Cc1cc(Oc2ccccc2F)nc(C2CCN(C(=O)c3cncc(-c4cncnc4)c3)CC2)n1 [BDH_32370406] | 0.98 |  |  |
| Cc1nccn1Cc1cccc(C(=O)N2[C@H](Cc3ccccc3)C[C@]3(C)NC(=O)CCC[C@H]23)c1 [BDH_32370660] | -3.96 |  |  |
| CNC(=O)C1CN(C(=O)C2(C)CCN(C(=O)c3ccccc3)CC2)CCN1Cc1ccccc1 (centres unmarked) [BDH_32370904] |  | -3.09 |  |
| O=C1OC2(CCCN(C(=O)c3ccnc(N4CCOCC4)c3)CC2)CN1CCc1ccccc1 (centres unmarked) [BDH_32370969] | -1.73 |  |  |
| CNC(=O)c1cc(C)nc(C2(C)CCN(C(=O)c3ccc(C)c(NCc4ccccn4)c3)CC2)n1 [BDH_32371078] | 4.95 |  |  |
| Cc1ccc(C(=O)N2C[C@@H](c3ccc(F)cc3)[C@@]3(CCCC(=O)N3)C2)cc1NCc1ccccn1 [BDH_32371225] |  | -3.76 |  |
| COc1ccc(C(=O)N2CCCC(Cc3cn4ccnc4cn3)CC2)cc1OCc1ccccn1 (centres unmarked) [BDH_32371251] | 1.17 |  |  |
| CN1C(=O)C2(CCN(C(=O)c3cccc(Nc4ncccn4)c3)CC2)CC1Cc1ccc(F)cc1 (centres unmarked) [BDH_32371589] |  | 8.79 |  |
| O=C1COC2(CCCN(C(=O)c3ccccc3Cn3ccnc3)CC2)CN1CCc1ccccc1 (centres unmarked) [BDH_32371928] |  | -2.75 |  |
| O=C(c1ccccc1CN1CCOCC1)N1CCOCC(Cc2ccc3ccncc3c2)C1 (centres unmarked) [BDH_32372076] | -4.00 |  |  |
